Our source for the mass density values is the NIST ThermoML archive (doi:10.1016/j.jct.2012.09.023).

The structures appear in SMILES notation. ± gives the expanded uncertainty stated by the source.

For this series the following is noted: 101.33 kPa, Liquid, Pycnometric method.

Turning to `CC(=O)N(C)C.O=C(O)C(F)(F)F` [N,N-dimethylacetamide trifluoroacetate], the mass density (303.15 K) turned out to be 1227.9 ± 2.1 kg/m3, the mass density (313.15 K) is given as 1218 ± 2.1 kg/m3 and the mass density (323.15 K) was determined as 1208.2 ± 2.1 kg/m3.

In the case of `CN(C)C=O.O=C(O)C(F)(F)F` [N,N-dimethylformamide trifluoroacetate], the mass density (303.15 K) was found to be 1246 ± 2.2 kg/m3, the mass density (313.15 K) came out at 1232.9 ± 2.2 kg/m3 and the mass density (323.15 K) is recorded as 1219.9 ± 2.2 kg/m3.

For the compound `CN1CCCC1=O.O=C(O)C(F)(F)F` [N-methylpyrrolidone trifluoroacetate], the mass density is given as 1232.3 ± 2.1 kg/m3 (303.15 K), 1226.1 ± 2.1 kg/m3 (313.15 K) and 1219.9 ± 2.1 kg/m3 (323.15 K).

By mass density is commonly meant mass per unit of volume.
